pIC50: −log10 of the molar value.
Legend:
[1] = tested on: MT4; assay: Cytotoxicity against human MT4 cells assessed as reduction in cell viability by CellTiter-Glo luminescence assay; type: cell-based
[2] = tested on: MDA-MB-231; assay: Antiproliferative activity against human MDA-MB-231 cells assessed as reduction in cell viability measured after 72 hrs by SRB assay; type: functional, cell-based; settings: MDA-MB-231, 72 h
[3] = tested on: KB; assay: Antiproliferative activity against human KB cells assessed as reduction in cell viability measured after 72 hrs by SRB assay; type: functional, cell-based
[4] = tested on: A549; assay: Antiproliferative activity against human A549 cells assessed as reduction in cell viability measured after 72 hrs by SRB assay; settings: A549, 72 h
[5] = tested on: Human immunodeficiency virus 1; assay: Antiviral activity against HIV-1 NL4-3 infected in human MT4 cells assessed as reduction in p24 production treated at 48 hrs post-infection and measured on day 4 post-viral infection by ELISA; type: functional, organism-based; settings: Human immunodeficiency virus 1, NL4-3, MT4
[6] = tested on: MCF7; assay: Antiproliferative activity against human MCF7 cells assessed as reduction in cell viability measured after 72 hrs by SRB assay; type: functional, cell-based; settings: MCF7, 72 h
[7] = Antiproliferative activity against human KB-VIN cells assessed as reduction in cell viability after 72 hrs by SRB assay; type: functional, cell-based; settings: KBVIN
[8] = Selectivity index, ratio of CC75 for cytotoxicity against human MT4 cells to IC50 for antiviral activity against HIV-1 NL4-3 infected in human MT4 cells; type: toxicity, cell-based; settings: read-out: Selectivity Index

Compound	CC75 [1] [µM]	pIC50 [2]	pIC50 [3]	pIC50 [4]	pIC50 [5]	pIC50 [6]	pIC50 [7]	selectivity ratio [8]
CC(=O)O[C@@H]1[C@@H](C)[C@@]2(O)[C@@H](C=C(CO)C[C@]3(O)C(=O)C(C)=C[C@@H]23)[C@@H]2C(C)(C)[C@]12OC(C)=O	> 10	5.05	< 5.00	5.13	5.87	< 5.00	< 5.00	–
CC(=O)OCC1=C[C@H]2[C@@H]3C(C)(C)[C@]3(OC(C)=O)[C@H](O)[C@@H](C)[C@]2(O)[C@@H]2C=C(C)C(=O)[C@@]2(O)C1	> 5	–	–	–	–	–	–	–
CC(=O)OCC1=C[C@H]2[C@@H]3C(C)(C)[C@]3(OC(C)=O)[C@H](OC(C)=O)[C@@H](C)[C@]2(O)[C@@H]2C=C(C)C(=O)[C@@]2(O)C1	> 5	< 5.00	< 5.00	< 5.00	< 5.00	< 5.00	< 5.00	–
CC/C=C/C/C=C/C/C=C/C/C=C/C/C=C/CCCC(=O)OCC1=C[C@H]2[C@@H]3C(C)(C)[C@]3(OC(=O)CCC/C=C/C/C=C/C/C=C/C/C=C/C/C=C/CC)[C@H](O)[C@@H](C)[C@]2(O)[C@@H]2C=C(C)C(=O)[C@@]2(O)C1	> 5	< 5.00	< 5.00	< 5.00	5.65	< 5.00	< 5.00	–
CCCC(=O)OCC1=C[C@H]2[C@@H]3C(C)(C)[C@]3(OC(=O)CCC)[C@H](OC(=O)/C=C/c3ccc(OC(C)=O)c(OC)c3)[C@@H](C)[C@]2(O)[C@@H]2C=C(C)C(=O)[C@@]2(O)C1	–	5.22	5.07	5.43	< 5.00	5.03	4.90	–
COc1cc(/C=C/C(=O)O[C@@H]2[C@@H](C)[C@@]3(O)[C@@H](C=C(CO)C[C@]4(O)C(=O)C(C)=C[C@@H]34)[C@@H]3C(C)(C)[C@]23OC(C)=O)ccc1O	> 5	< 5.00	< 5.00	< 5.00	6.44	< 5.00	< 5.00	–
CC/C=C/C/C=C/C/C=C/C/C=C/C/C=C/CCCC(=O)OCC1=C[C@H]2[C@@H]3C(C)(C)[C@]3(OC(=O)CCC/C=C/C/C=C/C/C=C/C/C=C/C/C=C/CC)[C@H](OC(=O)CCC/C=C/C/C=C/C/C=C/C/C=C/C/C=C/CC)[C@@H](C)[C@]2(O)[C@@H]2C=C(C)C(=O)[C@@]2(O)C1	> 5	5.00	< 4.40	< 5.00	< 5.00	< 5.00	< 4.40	–
CC1=C[C@H]2[C@@]3(O)[C@H](C)[C@@H](OC(=O)/C=C/c4ccccc4)[C@]4(OC(=O)/C=C/c5ccccc5)[C@H]([C@@H]3C=C(COC(=O)/C=C/c3ccccc3)C[C@]2(O)C1=O)C4(C)C	> 5	< 5.00	< 5.00	< 5.00	< 5.00	< 5.00	< 5.00	–
C/C=C/C(=O)O[C@@H]1[C@@H](C)[C@@]2(O)[C@@H](C=C(CO)C[C@]3(O)C(=O)C(C)=C[C@@H]23)[C@@H]2C(C)(C)[C@]12OC(=O)/C=C/C	> 10	< 5.00	< 5.00	< 5.00	6.39	< 5.00	< 5.00	–
CCCCCCCCCCCCCCCCCCCC(=O)O[C@@H]1[C@@H](C)[C@@]2(O)[C@@H](C=C(CO)C[C@]3(O)C(=O)C(C)=C[C@@H]23)[C@@H]2C(C)(C)[C@]12OC(=O)CCCCCCCCCCCCCCCCCCC	> 5	< 5.00	< 5.00	< 5.00	< 5.00	< 5.00	< 5.00	–
CC/C=C/C/C=C/C/C=C/C/C=C/C/C=C/CCCC(=O)O[C@@H]1[C@@H](C)[C@@]2(O)[C@@H](C=C(CO)C[C@]3(O)C(=O)C(C)=C[C@@H]23)[C@@H]2C(C)(C)[C@]12OC(C)=O	> 5	< 5.00	< 5.00	< 5.00	9.34	< 5.00	< 5.00	> 10000
CC/C=C/C/C=C/C/C=C/C/C=C/C/C=C/CCCC(=O)O[C@@H]1[C@@H](C)[C@@]2(O)[C@@H](C=C(CO)C[C@]3(O)C(=O)C(C)=C[C@@H]23)[C@@H]2C(C)(C)[C@]12OC(=O)CCC/C=C/C/C=C/C/C=C/C/C=C/C/C=C/CC	> 5	< 5.00	< 5.00	< 5.00	6.96	< 5.00	< 5.00	–
CC/C=C/C/C=C/C/C=C/C/C=C/C/C=C/CCCC(=O)O[C@@H]1[C@@H](C)[C@@]2(O)[C@@H](C=C(CO)C[C@]3(O)C(=O)C(C)=C[C@@H]23)[C@@H]2C(C)(C)[C@]12OC(=O)CCC	> 5	< 5.00	< 5.00	< 5.00	8.64	< 5.00	< 5.00	> 1500
CC(=O)O[C@@]12[C@H](OC(=O)/C=C/c3ccccc3)[C@@H](C)[C@@]3(O)[C@@H](C=C(CO)C[C@]4(O)C(=O)C(C)=C[C@@H]34)[C@@H]1C2(C)C	> 5	< 5.00	< 5.00	< 5.00	8.51	< 5.00	< 5.00	> 1500
CCCC(=O)OCC1=C[C@H]2[C@@H]3C(C)(C)[C@]3(OC(=O)CCC)[C@H](O)[C@@H](C)[C@]2(O)[C@@H]2C=C(C)C(=O)[C@@]2(O)C1	> 5	–	–	–	–	–	–	–
C/C=C(/C)C(=O)O[C@]12C([C@@H]3C=C(CO)C[C@]4(O)C(=O)C(C)=C[C@H]4[C@@]3(O)[C@H](C)[C@H]1O)C2(C)C (single isomer, unassigned)	> 5	< 5.00	< 5.00	< 5.00	< 5.00	< 5.00	< 5.00	–
CC1=C[C@H]2[C@@]3(O)[C@H](C)[C@@H](O)[C@]4(OC(=O)/C=C/c5ccccc5)C([C@@H]3C=C(CO)C[C@]2(O)C1=O)C4(C)C (single isomer, unassigned)	> 5	< 5.00	< 5.00	< 5.00	< 5.00	< 5.00	< 5.00	–
CC/C=C/C/C=C/C/C=C/C/C=C/C/C=C/CCCC(=O)O[C@]12C([C@@H]3C=C(CO)C[C@]4(O)C(=O)C(C)=C[C@H]4[C@@]3(O)[C@H](C)[C@H]1O)C2(C)C (single isomer, unassigned)	> 5	5.70	< 5.00	7.05	7.21	< 5.00	< 5.00	> 50
CCCC(=O)OCC1=C[C@H]2C3C(C)(C)[C@]3(OC(=O)CCC)[C@H](OC(=O)/C=C/c3ccccc3)[C@@H](C)[C@]2(O)[C@@H]2C=C(C)C(=O)[C@@]2(O)C1 (single isomer, unassigned)	> 5	5.20	< 5.00	5.49	7.13	< 5.00	< 5.00	–
CC1=C[C@H]2[C@@]3(O)[C@H](C)[C@@H](O)[C@]4(OC(=O)CCc5ccccc5)C([C@@H]3C=C(CO)C[C@]2(O)C1=O)C4(C)C (single isomer, unassigned)	> 10	< 5.00	< 5.00	< 5.00	5.26	< 5.00	< 5.00	–
COc1cc(/C=C/C(=O)O[C@]23C([C@@H]4C=C(CO)C[C@]5(O)C(=O)C(C)=C[C@H]5[C@@]4(O)[C@H](C)[C@H]2O)C3(C)C)ccc1C(C)=O (single isomer, unassigned)	> 5	< 5.00	< 5.00	< 5.00	< 5.00	< 5.00	< 5.00	–
C/C=C/C(=O)OCC1=C[C@H]2C3C(C)(C)[C@]3(OC(=O)/C=C/C)[C@H](O)[C@@H](C)[C@]2(O)[C@@H]2C=C(C)C(=O)[C@@]2(O)C1 (single isomer, unassigned)	> 5	5.17	< 5.00	5.21	< 5.00	< 5.00	< 5.00	–
C/C=C/C(=O)O[C@]12C([C@@H]3C=C(CO)C[C@]4(O)C(=O)C(C)=C[C@H]4[C@@]3(O)[C@H](C)[C@H]1O)C2(C)C (single isomer, unassigned)	> 5	< 5.00	< 5.00	< 5.00	< 5.00	< 5.00	< 5.00	–
CC(=O)O[C@H]1C(=O)[C@@]2(C)[C@H]([C@H](OC(=O)c3ccccc3)[C@]3(O)C[C@H](OC(=O)[C@H](O)[C@@H](NC(=O)c4ccccc4)c4ccccc4)C(C)=C1C3(C)C)[C@]1(OC(C)=O)CO[C@@H]1C[C@@H]2O [PACLITAXEL]	–	8.10	8.10	–	–	7.82	5.60	–
Cc1cn([C@H]2C[C@H](N=[N+]=[N-])[C@@H](CO)O2)c(=O)[nH]c1=O [ZIDOVUDINE]	> 0.37	–	–	–	7.77	–	–	–
